In experiment [1] the test system is S. epidermidis ATCC 35984. Put plainly: Kinetics of killing planktonic S. epidermidis. Type of experiment: cell-based. Particulars: for effect on growth in initial treatment phase: 1/4MIC (0.38 μM) and 1/2MIC (0.75 μM), 2 to 6 h. On the procedure: An overnight culture of S. epidermidis ATCC 35984 was inoculated into 20 ml of fresh MH broth at a 1:200 dilution (10^6 CFU/ml). […] Every 2 h, 100 μl of the culture was diluted and spread on agar plates. Viable bacteria (CFU) were counted and the rate and extent of killing were determined by plotting CFU/ml against time (D’Arezzo et al. [2012]; Lee et al. [2008]). This experiment was independently repeated three times.

In experiment [2] the test system is 24-h biofilms of S. epidermidis ATCC 35984. Put plainly: Rabbit subcutaneous S. epidermidis biofilm infection model. Type of experiment: in vivo, New Zealand White rabbits. The following applies: 6.3 μM (4 × MIC), 1 ml local injection at 0, 24, 48 h; 72 h exposure. On the procedure: To test the effectiveness in vivo of H2-74 and H2-81, 24-h biofilms of S. epidermidis grown on polyethylene disks were imbedded subcutaneously into the New Zealand White rabbits and treated with the derivatives for 72 h in a modification of the method used previously (He et al. [2011]). Disks were cut from polyethylene 96-well plates (8 mm diameter, 1 mm thickness), sterilized with 75 % ethanol and placed in a Petri dish (100 mm diameter). An overnight culture of S. epidermidis ATCC 35984 (20 ml) was inoculated into the dish and incubated at 37 °C for 24 h. The disks covered with biofilms were then implanted subcutaneously in female New Zealand White rabbits (2.0–2.5 kg) that had been anesthetized with pentobarbital sodium (5 mg/kg i.v.). Four incisions (10 mm) were made on the back of the rabbit along the spine bilaterally after removal of fur, and the sub cutis was carefully dissected to form a 2-cm × 3-cm cavity. Two biofilm-covered polyethylene disks were implanted into each cavity, and to minimize the effect of between-animal variation, four different treatments were given locally to each rabbit.
Vancomycin (128 mg/l) and 0.1 % DMSO were administered as the controls. Twenty-four hours after the last treatment, the rabbits were euthanized and the implants were taken out with sterile forceps. Biofilms were scraped from the disks, and the viable bacteria were determined by CFU counting, as previously described (He et al. [2011]). All animals were housed and used in compliance with the guidelines of the Institute of Animal Care and Use Committee, and the protocol was approved by the committee.

Regarding `O=C(O)COc1ccc(C=C2SC(=Nc3ccc(Cl)cc3)N(c3ccc(Cl)cc3)C2=O)cc1` [H2-74, 2-{4-{[3-(4-chlorophenyl)-2-[(4-chlorophenyl)imino]-4-oxothiazolidin-5-ylidene}methyl}phenoxy}acetic acid], in experiment [1], the “effect on growth in initial treatment phase” value is on record as “inhibited the growth of S. epidermidis”. Besides, the viable cells is on record as 3.2 × 10^3 CFU/ml in experiment [1] (2 × MIC (3.1 μM), 12 h) and “more than 3.1 × 10^2 CFU/ml” in experiment [1] (4 × MIC (6.3 μM), 10 h). The “viable bacteria recovered from implanted disks” value in experiment [2] amounted to 2.91 ± 0.42 log10 CFU/cm^2.
`O=C(O)c1ccc(-c2ccc(/C=C3\S/C(=N\c4ccccc4)N(c4ccc(F)cc4)C3=O)s2)cc1` [H2-81, 4-{5-{{3-(4-fluorophenyl)-2-[(4-phenyl)imino]-4-oxothiazolidin-5-ylidene}methyl}thiophene-2-yl}benzoic acid]: the “effect on growth in initial treatment phase” value in experiment [1] is listed as “inhibited the growth of S. epidermidis”. Further, the viable cells result in experiment [1] (2 × MIC (3.1 μM), 12 h) is recorded as “less than 3 × 10^2 CFU/ml”; in experiment [1] (4 × MIC (6.3 μM), 10 h), less than 10 CFU/ml. Also, the CFU remaining in experiment [1] (4 × MIC, 10 h, as restated in discussion) is reported as ~ 10 CFU. Also, the “viable bacteria recovered from implanted disks” value in experiment [2] is 2.18 log10 CFU/cm^2.

The values above are taken from publication PMC4057637, “Efficacy of novel antibacterial compounds targeting histidine kinase YycG protein” (Applied Microbiology and Biotechnology, 2014).
